Data reported in patent US4594358A, “Analgesic method” (Eli Lilly and Company, priority 1985, dated 1986).
Counter-ions that a name gives are not always drawn. Like-named read-outs stand apart in the source and are kept apart here.

Legend:
mouse writhing = mouse writhing assay (acetic acid induced); type: in vivo, mouse (albino male mice); settings: for Percent Inhibition of Writhing: Table 4, dextropropoxyphene napsylate 40 mg/kg + saline p.o.; for ability to potentiate analgesic effect of dextropropoxyphene (in words): mouse, in vivo
From the text: Writhing, which is characterized by contraction of the abdominal musculature, extension of the hindlegs, and rotation of the trunk, was induced in albino male mice. The extent to which writhing is reduced following administration of a test compound is an indication of the analgesic activity of that compound.
Mice, weighing 18-24 grams, were fasted overnight and given the test compounds by gavage or subcutaneously. Writhing was then induced by the intraperitoneal administration of acetic acid (0.55 to 0.60 percent). Each treatment group consisted of five mice. The total number of writhes for the treatment group was determined during a 10-minute observation period starting five minutes after acetic acid administration.

[1] = administered alone (U.S. Pat. No. 4,035,511) or with morphine (U.S. Pat. No. 4,083,982); cited from earlier work
[2] = system: monoamine uptake, especially serotonin; settings: U.S. Pat. No. 4,313,896; cited from earlier work

CCC(=O)O[C@](Cc1ccccc1)(c1ccccc1)[C@H](C)CN(C)C [Dextropropoxyphene Napsylate]
ED50 (mouse writhing; Mus musculus, po, 0.5 h, Table 3, saline pretreatment p.o. three hours prior, dextropropoxyphene napsylate p.o. 30 minutes prior to assessment, read-out: Inhibition of Mouse Writhing ED50): 44.2 mg/kg | ED50 (mouse writhing; Mus musculus, po, 1 h, read-out: Inhibition of Mouse Writhing ED50): 49.3 mg/kg | inhibition at 10 mg/kg (mouse writhing; Mus musculus, po, 1 h, read-out: Percent Inhibition of Mouse Writhing): 0% | ED50 (mouse writhing; Mus musculus, sc, 0.5 h, read-out: Induced Inhibition of Mouse Writhing ED50): 9.95 mg/kg | Percent Inhibition of Writhing (mouse writhing; 30 minutes after administration): 40% | Percent Inhibition of Writhing (mouse writhing; 60 minutes after administration): 6% | Percent Inhibition of Writhing (mouse writhing; 70 minutes after administration): 10% | Percent Inhibition of Writhing (mouse writhing; 120 minutes after administration): 28% | Percent Inhibition of Writhing (mouse writhing; 180 minutes after administration): 5% | inhibition of mouse writhing (in words) (mouse writhing; dextropropoxyphene napsylate 10 mg/kg p.o. alone, 60 minutes prior to assessment): no inhibition of the writhing | ED50 of dextropropoxyphene napsylate alone relative to that with fluoxetine hydrochloride (mouse writhing; s.c., 30 minutes, 20 mg/kg fluoxetine hydrochloride s.c. concomitantly): twice the amount needed

CNCCC(Oc1ccc(C(F)(F)F)cc1)c1ccccc1 (stereo not shown) [Fluoxetine Hydrochloride]
analgesic activity in mouse writhing test (mouse writhing; fluoxetine hydrochloride alone, doses up to 160 mg/kg, 30-180 minutes before writhing was induced): devoid of analgesic activity

CNCCC(Oc1ccc(C(F)(F)F)cc1)c1ccccc1 (stereo not shown) [Fluoxetine, 3-(4-trifluoromethylphenoxy)-N-methyl-3-phenylpropylamine]
ability to potentiate analgesic effect of dextropropoxyphene (in words) (mouse writhing): potentiate the analgesic effect of dextropropoxyphene | analgesic properties (in words) [1]: possess analgesic properties

NCCC(Oc1ccc(C(F)(F)F)cc1)c1ccccc1 (stereo not shown) [Norfluoxetine, 3-(4-trifluoromethylphenoxy)-3-phenylpropylamine]
ability to potentiate analgesic effect of dextropropoxyphene (in words) (mouse writhing): potentiate the analgesic effect of dextropropoxyphene | monoamine uptake blockade (in words) [2]: block monoamine uptake, especially serotonin
